Source: patent US9309200B2, “Benzazepine derivatives, pharmaceutical compositions containing them, and their use in therapy” (AbbVie Deutschland GmbH & Co. KG, priority 2011, dated 2016)
Counter-ions that a name gives are not always drawn.

Molecular target: T1, human GlyT1c transporter (Homo sapiens, UniProt P48067)
T1 construct: expressed in transfected cells; host or cells: recombinant CHO cells (membranes); the uptake assay names the line hGlyT1c_5_CHO
T1 sequence (P48067 1-706): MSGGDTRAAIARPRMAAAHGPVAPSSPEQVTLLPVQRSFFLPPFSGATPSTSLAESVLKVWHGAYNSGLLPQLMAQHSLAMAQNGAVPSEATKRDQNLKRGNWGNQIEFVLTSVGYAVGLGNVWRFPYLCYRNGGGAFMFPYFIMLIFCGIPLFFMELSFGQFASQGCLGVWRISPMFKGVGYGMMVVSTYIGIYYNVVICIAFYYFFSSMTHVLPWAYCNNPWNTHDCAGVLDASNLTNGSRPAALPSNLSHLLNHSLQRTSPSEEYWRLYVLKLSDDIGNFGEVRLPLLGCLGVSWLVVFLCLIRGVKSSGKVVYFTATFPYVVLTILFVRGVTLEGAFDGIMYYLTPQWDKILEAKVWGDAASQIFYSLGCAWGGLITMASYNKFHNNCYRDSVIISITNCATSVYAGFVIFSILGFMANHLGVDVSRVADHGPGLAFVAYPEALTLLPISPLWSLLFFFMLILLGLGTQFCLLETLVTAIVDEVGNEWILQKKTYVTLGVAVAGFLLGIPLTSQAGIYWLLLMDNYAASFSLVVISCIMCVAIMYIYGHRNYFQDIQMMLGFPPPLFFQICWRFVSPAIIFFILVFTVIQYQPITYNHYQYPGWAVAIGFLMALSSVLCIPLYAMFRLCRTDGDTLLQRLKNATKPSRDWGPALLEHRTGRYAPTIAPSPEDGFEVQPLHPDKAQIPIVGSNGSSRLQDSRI
Assay: Radioligand binding assay using recombinant CHO cell membranes expressing human GlyT1
Conditions: read-out: radioligand binding Kiapp
Method: 2. Radioligand Binding Assays Using Recombinant CHO Cell Membranes Expressing Human GlyT1:
Radioligand binding to human GlyT1c transporter-expressing membranes was determined as described in Mezler et al., Molecular Pharmacology 74:1705-1715, 2008.

Ki [nM]	Structure (SMILES)
> 10000	COc1ccc2c(c1)C(Cc1ccccc1)NCCC2 (stereo not drawn) [Example 1, 1-Benzyl-8-methoxy-2,3,4,5-tetrahydro-1H-benzo[c]azepine]
≤ 100	Cn1cnc(S(=O)(=O)NCCOc2ccc3c(c2)C(Cc2ccccc2)NCCC3)c1 (stereo not drawn) [Example 2, N-(2-(1-Benzyl-2,3,4,5-tetrahydro-1H-benzo[c]azepin-8-yloxy)ethyl)-1-methyl-1H-imidazole-4-sulfonamide]
≤ 10	Cn1cc(S(=O)(=O)NCCOc2ccc3c(c2)C(Cc2ccccc2)NCCC3)cn1 (stereo not drawn) [Example 3, N-(2-(1-Benzyl-2,3,4,5-tetrahydro-1H-benzo[c]azepin-8-yloxy)ethyl)-1-methyl-1H-pyrazole-4-sulfonamide]
≤ 100	O=S(=O)(CC1CC1)NCCOc1ccc2c(c1)C(Cc1ccccc1)NCCC2 (stereo not drawn) [Example 4, N-(2-(1-benzyl-2,3,4,5-tetrahydro-1H-benzo[c]azepin-8-yloxy)ethyl)-1-cyclopropylmethanesulfonamide]
≤ 10000	COc1ccc2c(c1)C(C1(c3ccc(Cl)cc3)CCC1)NCCO2 (stereo not drawn) [Example 5, 5-(1-(4-Chlorophenyl)cyclobutyl)-7-methoxy-2,3,4,5-tetrahydrobenzo[f][1,4]oxazepine hydrochloride]
≤ 10	CN1CCCc2ccc(OCCNS(=O)(=O)c3cn(C)cn3)cc2C1Cc1ccccc1 (stereo not drawn) [Example 6, 1-Methyl-1H-imidazole-4-sulfonic acid [2-(1-benzyl-2-methyl-2,3,4,5-tetrahydro-1H-benzo[c]azepin-8-yloxy)-ethyl]-amide]
≤ 10	CN1CCCc2ccc(OCCNS(=O)(=O)c3cnn(C)c3)cc2C1Cc1ccccc1 (stereo not drawn) [Example 7, 1-Methyl-1H-pyrazole-4-sulfonic acid [2-(1-benzyl-2-methyl-2,3,4,5-tetrahydro-1H-benzo[c]azepin-8-yloxy)-ethyl]amide]
≤ 1000	CCCS(=O)(=O)NCCOc1ccc2c(c1)C(Cc1ccc(Cl)cc1)NCCC2 (stereo not drawn) [Example 8, Propane-1-sulfonic acid {2-[1-(4-chlorobenzyl)-2,3,4,5-tetrahydro-1H-benzo[c]azepin-8-yloxy]-ethyl}-amide]
≤ 10000	CCS(=O)(=O)NCCOc1ccc2c(c1)C(Cc1ccc(Cl)cc1)NCCC2 (stereo not drawn) [Example 9, Ethanesulfonic acid {2-[1-(4-chlorobenzyl)-2,3,4,5-tetrahydro-1H-benzo[c]azepin-8-yloxy]-ethyl}-amide]
≤ 100	CCCS(=O)(=O)NCCOc1ccc2c(c1)C(Cc1ccccc1)NCCC2 (stereo not drawn) [Example 10, Propane-1-sulfonic acid [2-(1-benzyl-2,3,4,5-tetrahydro-1H-benzo[c]azepin-8-yloxy)-ethyl]-amide]
≤ 1000	CCS(=O)(=O)NCCOc1ccc2c(c1)C(Cc1ccccc1)NCCC2 (stereo not drawn) [Example 11, Ethanesulfonic acid [2-(1-benzyl-2,3,4,5-tetrahydro-1H-benzo[c]azepin-8-yloxy)-ethyl]-amide]
≤ 1000	O=S(=O)(CC1CC1)NCCOc1ccc2c(c1)C(Cc1ccc(Cl)cc1)NCCC2 (stereo not drawn) [Example 12, N-{2-[1-(4-Chlorobenzyl)-2,3,4,5-tetrahydro-1H-benzo[c]azepin-8-yloxy]-ethyl}-C-cyclopropyl-methanesulfonamide]
≤ 100	O=S(=O)(CC1CC1)NCCOc1ccc2c(c1)C(Cc1ccccc1)NCCC2 (stereo not drawn) [Example 13, N-{2-[1-Benzyl-2,3,4,5-tetrahydro-1H-benzo[c]azepin-8-yloxy]-ethyl}-C-cyclopropyl-methanesulfonamide]
≤ 1000	CCCS(=O)(=O)NCc1ccc2c(c1)C(Cc1ccc(Cl)cc1)NCCC2 (stereo not drawn) [Example 14, Propane-1-sulfonic acid [1-(4-chloro-benzyl)-2,3,4,5-tetra-hydro-1H-benzo[c]azepin-8-ylmethyl]-amide]
≤ 10000	O=S(=O)(CC1CC1)NCc1ccc2c(c1)C(Cc1ccc(Cl)cc1)NCCC2 (stereo not drawn) [Example 15, N-[1-(4-Chloro-benzyl)-2,3,4,5-tetrahydro-1H-benzo[c]azepin-8-ylmethyl]-C-cyclopropyl-methanesulfonamide]
≤ 10000	CCS(=O)(=O)NCc1ccc2c(c1)C(Cc1ccc(Cl)cc1)NCCC2 (stereo not drawn) [Example 16, Ethanesulfonic acid [1-(4-chloro-benzyl)-2,3,4,5-tetra-hydro-1H-benzo[c]azepin-8-ylmethyl]-amide]
≤ 1000	O=S(=O)(NCc1ccc2c(c1)C(Cc1ccc(Cl)cc1)NCCC2)C1CCC1 (stereo not drawn) [Example 17, Cyclobutanesulfonic acid [1-(4-chloro-benzyl)-2,3,4,5-tetra-hydro-1H-benzo[c]azepin-8-ylmethyl]-amide]

Ki [nM]	Structure (SMILES)
≤ 1000	Cn1cnc(S(=O)(=O)NCc2ccc3c(c2)C(Cc2ccc(Cl)cc2)NCCC3)c1 (stereo not drawn) [Example 18, 1-Methyl-1H-imidazole-4-sulfonic acid [1-(4-chloro-benzyl)-2,3,4,5-tetrahydro-1H-benzo-[c]azepin-8-ylmethyl]-amide]
≤ 100	Cn1cc(S(=O)(=O)NCc2ccc3c(c2)C(Cc2ccc(Cl)cc2)NCCC3)cn1 (stereo not drawn) [Example 19, 1-Methyl-1H-pyrazole-4-sulfonic acid [1-(4-chloro-benzyl)-2,3,4,5-tetrahydro-1H-benzo-[c]azepin-8-ylmethyl]-amide]
≤ 10	Cn1cnc(S(=O)(=O)NCCOc2ccc3c(c2)C(Cc2cccc(F)c2)NCCC3)c1 (stereo not drawn) [Example 20, 1-Methyl-1H-imidazole-4-sulfonic acid {2-[1-(3-fluoro-benzyl)-2,3,4,5-tetrahydro-1H-benzo[c]azepin-8-yloxy]-ethyl}-amide]
≤ 10	Cn1cc(S(=O)(=O)NCCOc2ccc3c(c2)C(Cc2cccc(F)c2)NCCC3)cn1 (stereo not drawn) [Example 21, 1-Methyl-1H-pyrazole-4-sulfonic acid {2-[1-(3-fluoro-benzyl)-2,3,4,5-tetrahydro-1H-benzo[c]azepin-8-yloxy]-ethyl}-amide]
≤ 10	Cn1cnc(S(=O)(=O)NCc2ccc3c(c2)C(Cc2cccc(F)c2)NCCC3)c1 (stereo not drawn) [Example 22, 1-Methyl-1H-imidazole-4-sulfonic acid [1-(3-fluoro-benzyl)-2,3,4,5-tetrahydro-1H-benzo[c]azepin-8-ylmethyl]-amide]
≤ 100	CCCS(=O)(=O)NCCOc1ccc2c(c1)C(Cc1cccc(F)c1)NCCC2 (stereo not drawn) [Example 23, Propane-1-sulfonic acid {2-[1-(3-fluoro-benzyl)-2,3,4,5-tetrahydro-1H-benzo[c]azepin-8-yloxy]-ethyl}-amide]
≤ 100	O=S(=O)(CC1CC1)NCCOc1ccc2c(c1)C(Cc1cccc(F)c1)NCCC2 (stereo not drawn) [Example 24, C-Cyclopropyl-N-{2-[1-(3-fluoro-benzyl)-2,3,4,5-tetrahydro-1H-benzo[c]azepin-8-yloxy]-ethyl}-methanesulfonamide]
≤ 1000	CCS(=O)(=O)NCCOc1ccc2c(c1)C(Cc1cccc(F)c1)NCCC2 (stereo not drawn) [Example 25, Ethanesulfonic acid {2-[1-(3-fluoro-benzyl)-2,3,4,5-tetrahydro-1H-benzo[c]azepin-8-yloxy]-ethyl}-amide]
≤ 10	Cn1cc(S(=O)(=O)NCc2ccc3c(c2)C(Cc2cccc(F)c2)NCCC3)cn1 (stereo not drawn) [Example 26, 1-Methyl-1H-pyrazole-4-sulfonic acid [1-(3-fluoro-benzyl)-2,3,4,5-tetrahydro-1H-benzo[c]azepin-8-ylmethyl]-amide]
≤ 1000	CCCS(=O)(=O)NCc1ccc2c(c1)C(Cc1cccc(F)c1)NCCC2 (stereo not drawn) [Example 27, Propane-1-sulfonic acid [1-(3-fluoro-benzyl)-2,3,4,5-tetrahydro-1H-benzo[c]azepin-8-ylmethyl]-amide]
≤ 100	O=S(=O)(CC1CC1)NCc1ccc2c(c1)C(Cc1cccc(F)c1)NCCC2 (stereo not drawn) [Example 28, C-Cyclopropyl-N-[1-(3-fluoro-benzyl)-2,3,4,5-tetrahydro-1H-benzo[c]azepin-8-ylmethyl)-methanesulfonamide]
≤ 1000	CCS(=O)(=O)NCc1ccc2c(c1)C(Cc1cccc(F)c1)NCCC2 (stereo not drawn) [Example 29, Ethanesulfonic acid [1-(3-fluoro-benzyl)-2,3,4,5-tetrahydro-1H-benzo[c]azepin-8-ylmethyl]-amide]
≤ 100	O=S(=O)(CC1CC1)NCc1ccc2c(c1)C(Cc1ccccc1)NCCC2 (stereo not drawn) [Example 30, N-(1-Benzyl-2,3,4,5-tetrahydro-1H-benzo[c]azepin-8-ylmethyl)-C-cyclopropyl-methane-sulfonamide]
≤ 100	O=S(=O)(NCc1ccc2c(c1)C(Cc1ccccc1)NCCC2)C1CCC1 (stereo not drawn) [Example 31, Cyclobutanesulfonic acid (1-benzyl-2,3,4,5-tetrahydro-1H-benzo[c]azepin-8-ylmethyl)-amide]
≤ 1000	CCCS(=O)(=O)NCc1ccc2c(c1)C(Cc1ccccc1)NCCC2 (stereo not drawn) [Example 32, Propane-1-sulfonic acid (1-benzyl-2,3,4,5-tetrahydro-1H-benzo[c]-azepin-8-ylmethyl)-amide]
≤ 10000	CCS(=O)(=O)NCc1ccc2c(c1)C(Cc1ccccc1)NCCC2 (stereo not drawn) [Example 33, Ethanesulfonic acid (1-benzyl-2,3,4,5-tetrahydro-1H-benzo[c]-azepin-8-ylmethyl)-amide]
